Measured values published in US4973472A, “Dental plaque inhibitor” (Senju Pharmaceutical Col., Ltd., priority 1988, dated 1990).

How the values were obtained:
GTase = assay: GTase-inhibitory activity (formation of insoluble glucan from sucrose, turbidity at 550 nm); type: biochemical, Streptococcus mutans ATCC 33402; conditions: for Optical density of reaction system: 550 nm
Method: The enzyme GTase was prepared from Streptococcus mutans and using sucrose as the substrate, the inhibitory effect of the test substances on the formation of insoluble glucan was determined.
The preparation of GTase was carried out in accordance with the description in Methods for Isolation of Microorganisms (Kazue Yamazato (ed.): R&D Planning), page 733, (1) Preparation of cell-free GTase. Thus, Streptococcus mutans ATCC 33402 was cultured (inoculum size 1%) in brain heart infusion broth (Difco; hereinafter referred to as BHI medium) under stationary conditions at 37° C. for 18 hours and the resulting culture was centrifuged at 4,000 rpm for 10 minutes. The supernatant was taken and ammonium sulfate was added at a final concentration of 60% saturation. The mixture was gently stirred at 4° C. overnight for salting-out and the precipitate was dissolved in 5 mM potassium phosphate buffer (pH 6.5). This solution was then dialyzed against the same buffer at 4° C. overnight to give a crude GTase preparation.
The assay of GTase activity was carried out by the method described in Methods for Isolation of Microorganisms (ibid), page 733, (2) Assay of activities in microbial culture filtrates with minor modification. Thus, the solution prepared as per Tables 1 and 2 was used as a test solution and the corresponding solution prepared by using the same quantity of distilled water in lieu of the test substance solution in otherwise the same composition was used as a control solution. Test tubes were filled with 5 ml aliquots of the test solution or the control solution and allowed to stand in upright position at 37° C. for 16 hours. After completion of the reaction each tube was shaken well to agitate the reaction system and the optical density at 550 nm was measured to find the degree of turbidity. The inhibitory activity of the test substance against GTase was calculated as a percentage with the turbidity of the control reaction system being taken as 100%. […]
Among the substances falling under the purview of the present invention, those mentioned in Table 3 (Substances 1 through 6) were used as test substances.
For each of the substances mentioned in Table 3, the GTase activity at the test substance concentration of 0.5% in the reaction system was assayed to estimate the inhibitory activity of the test substance.
For Substance 1, GTase activity was assayed in the reaction system corresponding to each concentration of the test substance in the range of 0.01% to 1.0% and to obtain correlation between inhibitory activity and test substance concentration.
For Substance 1 at a concentration of 0.5%, either aqueous sodium hydroxide solution or hydrochloric acid was added to portions of the substrate-test substance solution shown in Table 1 to prepare solutions adjusted to pH 4, 5, 6, 7 and 8, respectively, and using each of these solutions, the reaction was carried out at the corresponding pH. The GTase activity at each pH was assayed and the correlation between reaction system pH and inhibitory activity was studied.

Streptococcus mutans = assay: Prevention of the adhesion of tooth decaying bacteria to the human tooth; type: cell-based, Streptococcus mutans ATCC 330402; conditions: 0.5% Substance 1; BHI medium with 5% sucrose; 37° C., 6 hours; scanning electron microscope x 4,000
Method: Two test tubes were respectively filled with BHI medium containing 5% of sucrose and a sterilized human tooth was suspended in each of the tubes using a stainless steel wire. After Substance 1 was added to one of the tubes at a final concentration of 0.5%, a culture of Streptococcus mutans ATCC 330402 grown in BHI medium at 37° C. for 18 hours was added to both tubes at a final concentration of 10^8 CFU/ml. The tubes were further incubated at 37° C. for 6 hours, at the end of which time the teeth were taken out, rinsed and observed with a scanning electron microscope at a magnification of x 4,000.

[1] = Table 4, 0.5% test substance, 37° C., 16 hours, buffer pH 6.5
[2] = Table 4, 0.5% test substance, 37° C., 16 hours, buffer pH 6.5, control 0.55

CC(C)CCCC(C)CCCC(C)CCCC1(C)CCc2cc(OP(=O)(O)OC3=C(O)C(C(O)CO)OC3=O)ccc2O1 (centres unmarked) [Substance 5]
% Inhibition (GTase; [1]): 94.5%
Optical density of reaction system (GTase; [2]): 0.03

Cc1c(C)c2c(c(C)c1OP(=O)(O)OC1=C(O)C(C(O)CO)OC1=O)CCC(C)(CCCC(C)CCCC(C)CCCC(C)C)O2 (centres unmarked) [Substance 1]
adherent bacterial cells and colonies on the tooth surface (FIG. 2) (Streptococcus mutans): neither adherent bacterial cells nor colonies
adhesion of bacterial cells and subsequent formation of colonies on the tooth surface (Streptococcus mutans): completely inhibited
inhibitory activity, dependence on concentration (GTase; 0.01% to 1.0%): concentration-dependent
inhibition rates (GTase; 0.075% and higher concentrations): not less than 90%
formation of insoluble glucan (GTase; 0.5%, pH range where GTase was active): very slight
% Inhibition (GTase; [1]): 92.7%
Optical density of reaction system (GTase; [2]): 0.04
% Inhibition (GTase; Table 5, concentration 0.01%): 59.7%
Optical density of reaction system (GTase; Table 5, concentration 0.01%, control 0.496): 0.20
% Inhibition (GTase; Table 5, concentration 0.025%): 59.7%
Optical density of reaction system (GTase; Table 5, concentration 0.025%, control 0.496): 0.20
% Inhibition (GTase; Table 5, concentration 0.05%): 59.7%
Optical density of reaction system (GTase; Table 5, concentration 0.05%, control 0.496): 0.20
% Inhibition (GTase; Table 5, concentration 0.075%): 89.9%
Optical density of reaction system (GTase; Table 5, concentration 0.075%, control 0.496): 0.05
% Inhibition (GTase; Table 5, concentration 0.1%): 96.0%
Optical density of reaction system (GTase; Table 5, concentration 0.1%, control 0.496): 0.02
% Inhibition (GTase; Table 5, concentration 0.25%): 96.0%
Optical density of reaction system (GTase; Table 5, concentration 0.25%, control 0.496): 0.02
% Inhibition (GTase; Table 5, concentration 0.5%): 96.0%
Optical density of reaction system (GTase; Table 5, concentration 0.5%, control 0.496): 0.02
% Inhibition (GTase; Table 5, concentration 1.0%): 96.0%
Optical density of reaction system (GTase; Table 5, concentration 1.0%, control 0.496): 0.02
Optical density (GTase; Table 6, pH 4, 0.5% test substance, control 0.08): 0.05
% Inhibition (GTase; Table 6, pH 5, 0.5% test substance): 71.4%
Optical density (GTase; Table 6, pH 5, 0.5% test substance, control 0.35): 0.06
% Inhibition (GTase; Table 6, pH 6, 0.5% test substance): 91.9%
Optical density (GTase; Table 6, pH 6, 0.5% test substance, control 0.62): 0.05
% Inhibition (GTase; Table 6, pH 7, 0.5% test substance): 94.9%
Optical density (GTase; Table 6, pH 7, 0.5% test substance, control 0.59): 0.03
Optical density (GTase; Table 6, pH 8, 0.5% test substance, control 0.05): 0.02
inhibition rates (GTase; concentration of 0.01%): about 60%
inhibition rate (GTase; pH 5, 0.5%): about 70%
inhibition rate (GTase; pH 6 and 7, 0.5%): not less than 90%

Cc1c(C)c2c(c(C)c1OP(=O)(O)OC1=C(O)C(C(O)CO)OC1=O)CCC(C)(CCCC(C)CCCC(C)CCCC(C)C)O2 (centres unmarked) [Substance 6]
% Inhibition (GTase; [1]): 95.8%
Optical density of reaction system (GTase; [2]): 0.02

Cc1cc(OP(=O)(O)OC2=C(O)C(C(O)CO)OC2=O)cc2c1OC(C)(CCCC(C)CCCC(C)CCCC(C)C)CC2 (centres unmarked) [Substance 4]
% Inhibition (GTase; [1]): 94.5%
Optical density of reaction system (GTase; [2]): 0.03

Cc1cc(OP(=O)(O)OC2=C(O)C(C(O)CO)OC2=O)c(C)c2c1OC(C)(CCCC(C)CCCC(C)CCCC(C)C)CC2 (centres unmarked) [Substance 2]
% Inhibition (GTase; [1]): 94.5%
Optical density of reaction system (GTase; [2]): 0.03

Cc1c(OP(=O)(O)OC2=C(O)C(C(O)CO)OC2=O)cc2c(c1C)OC(C)(CCCC(C)CCCC(C)CCCC(C)C)CC2 (centres unmarked) [Substance 3]
% Inhibition (GTase; [1]): 94.5%
Optical density of reaction system (GTase; [2]): 0.03
